Key:
[1] = molecular target: Serine/threonine-protein kinase 24 (Homo sapiens) (UniProt Q9Y6E0); assay: Selectivity interaction (KinomeScan (DiscoverX)) EUB0000699a STK24; settings: at 10 µM
[2] = molecular target: Serine/threonine-protein kinase pim-2 (Homo sapiens, UniProt Q9P1W9); settings: at 10 µM
[3] = molecular target: T1, Tyrosine-protein kinase Tec (Homo sapiens) (UniProt P42680); assay: Selectivity interaction (KinomeScan (DiscoverX)) EUB0000229b TEC; settings: at 10 µM
T1 sequence (whole entry): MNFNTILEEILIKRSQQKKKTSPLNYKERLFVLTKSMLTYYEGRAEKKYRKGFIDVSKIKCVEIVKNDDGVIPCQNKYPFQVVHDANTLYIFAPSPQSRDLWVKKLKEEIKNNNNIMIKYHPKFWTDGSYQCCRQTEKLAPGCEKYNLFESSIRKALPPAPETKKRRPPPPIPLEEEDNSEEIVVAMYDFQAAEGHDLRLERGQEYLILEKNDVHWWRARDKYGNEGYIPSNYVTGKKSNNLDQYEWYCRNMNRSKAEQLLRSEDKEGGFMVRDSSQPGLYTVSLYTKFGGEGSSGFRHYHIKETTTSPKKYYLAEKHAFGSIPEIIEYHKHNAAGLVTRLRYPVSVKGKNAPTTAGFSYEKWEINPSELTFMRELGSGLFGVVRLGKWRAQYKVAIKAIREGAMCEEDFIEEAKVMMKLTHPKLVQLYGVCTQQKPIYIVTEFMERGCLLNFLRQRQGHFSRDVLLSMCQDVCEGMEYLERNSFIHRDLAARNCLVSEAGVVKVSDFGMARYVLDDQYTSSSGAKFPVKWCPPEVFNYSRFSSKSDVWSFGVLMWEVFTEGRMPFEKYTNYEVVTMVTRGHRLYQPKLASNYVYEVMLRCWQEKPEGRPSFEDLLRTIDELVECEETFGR

[4] = molecular target: Tyrosine-protein kinase ABL2 (Homo sapiens, UniProt P42684); assay: Selectivity interaction (KinomeScan (DiscoverX)) EUB0000092b ABL2; settings: at 10 µM
Sequence of Tyrosine-protein kinase ABL2 (P42684 whole entry): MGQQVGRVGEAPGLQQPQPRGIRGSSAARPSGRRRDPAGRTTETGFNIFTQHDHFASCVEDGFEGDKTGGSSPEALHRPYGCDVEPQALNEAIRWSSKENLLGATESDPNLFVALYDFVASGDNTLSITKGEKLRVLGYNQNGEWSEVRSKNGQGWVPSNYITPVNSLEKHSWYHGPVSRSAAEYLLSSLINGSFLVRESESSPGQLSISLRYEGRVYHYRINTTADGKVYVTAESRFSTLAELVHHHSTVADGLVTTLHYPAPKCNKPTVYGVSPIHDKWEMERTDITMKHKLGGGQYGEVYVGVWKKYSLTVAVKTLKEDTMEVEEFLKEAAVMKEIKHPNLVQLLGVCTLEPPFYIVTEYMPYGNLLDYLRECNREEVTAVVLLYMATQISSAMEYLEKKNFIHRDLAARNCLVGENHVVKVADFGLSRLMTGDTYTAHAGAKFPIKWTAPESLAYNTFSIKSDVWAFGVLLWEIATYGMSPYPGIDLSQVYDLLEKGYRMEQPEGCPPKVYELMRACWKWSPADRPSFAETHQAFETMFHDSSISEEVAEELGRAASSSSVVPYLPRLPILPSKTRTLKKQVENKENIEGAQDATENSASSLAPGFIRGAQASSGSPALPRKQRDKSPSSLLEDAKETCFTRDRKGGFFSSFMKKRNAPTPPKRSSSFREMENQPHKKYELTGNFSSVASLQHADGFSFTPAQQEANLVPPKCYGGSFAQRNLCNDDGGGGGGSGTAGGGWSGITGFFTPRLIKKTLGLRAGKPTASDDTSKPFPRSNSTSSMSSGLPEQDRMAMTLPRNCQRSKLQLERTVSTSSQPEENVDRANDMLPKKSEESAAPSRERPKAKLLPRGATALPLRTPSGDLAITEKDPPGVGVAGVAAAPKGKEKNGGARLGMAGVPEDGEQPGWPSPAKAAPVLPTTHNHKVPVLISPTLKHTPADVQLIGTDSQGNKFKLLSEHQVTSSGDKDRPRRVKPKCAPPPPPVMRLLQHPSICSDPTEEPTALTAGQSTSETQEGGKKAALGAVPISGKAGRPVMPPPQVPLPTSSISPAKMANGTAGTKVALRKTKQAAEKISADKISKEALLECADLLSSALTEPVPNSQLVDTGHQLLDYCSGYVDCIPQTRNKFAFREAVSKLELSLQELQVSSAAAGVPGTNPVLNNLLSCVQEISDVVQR

[5] = molecular target: T2, Mitogen-activated protein kinase 15 (Homo sapiens) (UniProt Q8TD08); assay: Selectivity interaction (KinomeScan (DiscoverX)) EUB0000655a MAPK15; settings: at 10 µM
T2 sequence (whole entry): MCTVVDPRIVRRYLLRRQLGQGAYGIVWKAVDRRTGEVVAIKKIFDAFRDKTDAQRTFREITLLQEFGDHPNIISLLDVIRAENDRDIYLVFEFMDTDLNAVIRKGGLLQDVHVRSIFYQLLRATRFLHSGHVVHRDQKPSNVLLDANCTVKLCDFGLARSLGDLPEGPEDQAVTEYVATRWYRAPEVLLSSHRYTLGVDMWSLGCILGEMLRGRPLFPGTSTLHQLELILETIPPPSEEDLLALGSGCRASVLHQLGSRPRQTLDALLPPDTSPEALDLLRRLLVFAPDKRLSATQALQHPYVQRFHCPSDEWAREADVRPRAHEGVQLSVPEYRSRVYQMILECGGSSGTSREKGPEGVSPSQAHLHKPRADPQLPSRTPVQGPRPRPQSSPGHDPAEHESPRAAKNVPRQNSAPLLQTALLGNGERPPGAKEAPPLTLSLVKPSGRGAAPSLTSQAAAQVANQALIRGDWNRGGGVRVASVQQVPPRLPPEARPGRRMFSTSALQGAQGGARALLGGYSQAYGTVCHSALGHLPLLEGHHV

[6] = molecular target: Serine/threonine-protein kinase N2 (Homo sapiens, UniProt Q16513); assay: Selectivity interaction (KinomeScan (DiscoverX)) EUB0001049a PKN2; settings: at 1 µM
Sequence of Serine/threonine-protein kinase N2 (Q16513 whole entry, looked up, the tested form may be a part): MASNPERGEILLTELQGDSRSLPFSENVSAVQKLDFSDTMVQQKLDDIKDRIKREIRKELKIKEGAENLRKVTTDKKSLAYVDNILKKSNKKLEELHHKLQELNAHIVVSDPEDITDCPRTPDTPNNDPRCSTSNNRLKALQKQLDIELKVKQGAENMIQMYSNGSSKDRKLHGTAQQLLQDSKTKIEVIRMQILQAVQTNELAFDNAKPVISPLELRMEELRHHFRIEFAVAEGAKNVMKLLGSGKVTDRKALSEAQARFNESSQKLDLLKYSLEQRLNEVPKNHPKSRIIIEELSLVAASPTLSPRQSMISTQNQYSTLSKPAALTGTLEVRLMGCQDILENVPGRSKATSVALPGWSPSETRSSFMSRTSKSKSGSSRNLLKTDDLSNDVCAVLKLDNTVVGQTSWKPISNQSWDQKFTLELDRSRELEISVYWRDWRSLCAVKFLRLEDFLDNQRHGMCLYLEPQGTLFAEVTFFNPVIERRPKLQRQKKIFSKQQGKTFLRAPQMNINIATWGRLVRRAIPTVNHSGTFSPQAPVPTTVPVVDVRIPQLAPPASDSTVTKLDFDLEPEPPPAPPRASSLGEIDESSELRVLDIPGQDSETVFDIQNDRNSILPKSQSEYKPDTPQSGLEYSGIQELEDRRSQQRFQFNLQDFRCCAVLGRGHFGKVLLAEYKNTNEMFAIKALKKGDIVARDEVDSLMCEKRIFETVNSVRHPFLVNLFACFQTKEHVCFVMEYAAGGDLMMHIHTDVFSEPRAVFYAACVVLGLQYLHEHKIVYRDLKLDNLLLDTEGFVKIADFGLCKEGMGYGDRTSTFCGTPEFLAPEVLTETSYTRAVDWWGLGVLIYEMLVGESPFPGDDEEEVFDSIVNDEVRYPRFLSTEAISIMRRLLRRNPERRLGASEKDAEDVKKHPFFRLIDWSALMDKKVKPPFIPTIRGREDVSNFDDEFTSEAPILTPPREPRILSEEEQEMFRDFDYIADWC

[7] = molecular target: T3, Ankyrin repeat and protein kinase domain-containing protein 1 (Homo sapiens) (UniProt Q8NFD2); assay: Selectivity interaction (KinomeScan (DiscoverX)) EUB0001049a ANKK1; settings: at 1 µM
T3 sequence (whole entry): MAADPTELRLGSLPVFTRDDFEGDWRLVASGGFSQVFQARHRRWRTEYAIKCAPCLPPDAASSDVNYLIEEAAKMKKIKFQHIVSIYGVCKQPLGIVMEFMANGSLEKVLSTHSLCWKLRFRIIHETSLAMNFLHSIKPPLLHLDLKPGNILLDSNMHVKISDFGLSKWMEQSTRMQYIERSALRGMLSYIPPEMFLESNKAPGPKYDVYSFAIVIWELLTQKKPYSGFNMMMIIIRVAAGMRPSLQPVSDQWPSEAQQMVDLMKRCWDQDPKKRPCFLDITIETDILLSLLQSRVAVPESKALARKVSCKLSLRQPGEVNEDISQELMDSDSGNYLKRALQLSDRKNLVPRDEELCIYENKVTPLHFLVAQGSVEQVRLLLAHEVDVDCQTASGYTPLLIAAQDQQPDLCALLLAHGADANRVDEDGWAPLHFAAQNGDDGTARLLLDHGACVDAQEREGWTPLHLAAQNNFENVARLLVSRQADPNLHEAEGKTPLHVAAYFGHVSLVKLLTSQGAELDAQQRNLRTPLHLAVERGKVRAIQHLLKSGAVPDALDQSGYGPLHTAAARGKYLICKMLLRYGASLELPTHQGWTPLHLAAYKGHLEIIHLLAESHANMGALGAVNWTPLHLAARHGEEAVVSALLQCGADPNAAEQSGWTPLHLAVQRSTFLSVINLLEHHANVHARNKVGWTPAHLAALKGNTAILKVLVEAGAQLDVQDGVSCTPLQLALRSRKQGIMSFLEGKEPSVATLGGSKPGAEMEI

[8] = molecular target: Serine/threonine-protein kinase mTOR (Homo sapiens, UniProt P42345); assay: Selectivity interaction (KinomeScan (DiscoverX)) EUB0001049a MTOR; settings: at 1 µM
[9] = molecular target: T4, Megakaryocyte-associated tyrosine-protein kinase (Homo sapiens) (UniProt P42679); assay: Selectivity interaction (KinomeScan (DiscoverX)) EUB0000045b MATK
T4 sequence (whole entry): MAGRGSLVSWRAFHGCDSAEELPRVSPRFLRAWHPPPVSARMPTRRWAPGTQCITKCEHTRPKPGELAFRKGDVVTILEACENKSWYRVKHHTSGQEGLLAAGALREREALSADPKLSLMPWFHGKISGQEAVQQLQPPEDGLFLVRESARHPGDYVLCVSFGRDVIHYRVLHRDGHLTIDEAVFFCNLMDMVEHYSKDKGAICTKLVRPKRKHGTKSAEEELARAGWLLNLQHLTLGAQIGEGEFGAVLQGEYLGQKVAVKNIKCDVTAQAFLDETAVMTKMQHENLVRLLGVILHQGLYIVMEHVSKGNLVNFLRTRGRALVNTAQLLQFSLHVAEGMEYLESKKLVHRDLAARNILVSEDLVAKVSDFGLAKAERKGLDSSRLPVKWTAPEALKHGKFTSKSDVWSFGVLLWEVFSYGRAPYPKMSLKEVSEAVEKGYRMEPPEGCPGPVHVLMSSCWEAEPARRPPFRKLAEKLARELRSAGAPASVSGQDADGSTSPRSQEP

[10] = molecular target: Serine/threonine-protein kinase tousled-like 2 (Homo sapiens) (UniProt Q86UE8); assay: Selectivity interaction (KinomeScan (DiscoverX)) EUB0001619a TLK2; settings: at 1 µM
Sequence of Serine/threonine-protein kinase tousled-like 2 (Homo sapiens) (Q86UE8 whole entry, looked up): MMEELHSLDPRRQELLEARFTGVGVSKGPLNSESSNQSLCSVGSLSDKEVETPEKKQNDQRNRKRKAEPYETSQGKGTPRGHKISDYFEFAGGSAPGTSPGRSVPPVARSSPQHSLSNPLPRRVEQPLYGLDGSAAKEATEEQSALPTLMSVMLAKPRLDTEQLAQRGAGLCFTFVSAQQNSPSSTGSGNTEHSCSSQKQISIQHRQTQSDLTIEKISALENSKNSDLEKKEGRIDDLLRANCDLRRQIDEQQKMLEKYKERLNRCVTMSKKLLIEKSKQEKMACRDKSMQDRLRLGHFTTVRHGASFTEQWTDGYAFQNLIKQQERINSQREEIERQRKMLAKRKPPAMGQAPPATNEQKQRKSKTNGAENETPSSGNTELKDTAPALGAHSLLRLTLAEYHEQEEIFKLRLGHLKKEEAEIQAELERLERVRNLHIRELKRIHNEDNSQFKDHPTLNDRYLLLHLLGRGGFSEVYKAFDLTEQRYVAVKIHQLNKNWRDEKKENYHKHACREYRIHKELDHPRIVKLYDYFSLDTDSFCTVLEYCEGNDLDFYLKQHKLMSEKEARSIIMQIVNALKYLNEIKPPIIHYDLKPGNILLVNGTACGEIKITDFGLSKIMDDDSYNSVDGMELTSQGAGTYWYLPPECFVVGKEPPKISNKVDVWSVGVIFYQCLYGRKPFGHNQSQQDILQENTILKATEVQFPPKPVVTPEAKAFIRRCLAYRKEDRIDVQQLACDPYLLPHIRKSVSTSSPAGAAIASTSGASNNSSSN

Sequence of Serine/threonine-protein kinase 24 (Homo sapiens) (Q9Y6E0 whole entry, looked up): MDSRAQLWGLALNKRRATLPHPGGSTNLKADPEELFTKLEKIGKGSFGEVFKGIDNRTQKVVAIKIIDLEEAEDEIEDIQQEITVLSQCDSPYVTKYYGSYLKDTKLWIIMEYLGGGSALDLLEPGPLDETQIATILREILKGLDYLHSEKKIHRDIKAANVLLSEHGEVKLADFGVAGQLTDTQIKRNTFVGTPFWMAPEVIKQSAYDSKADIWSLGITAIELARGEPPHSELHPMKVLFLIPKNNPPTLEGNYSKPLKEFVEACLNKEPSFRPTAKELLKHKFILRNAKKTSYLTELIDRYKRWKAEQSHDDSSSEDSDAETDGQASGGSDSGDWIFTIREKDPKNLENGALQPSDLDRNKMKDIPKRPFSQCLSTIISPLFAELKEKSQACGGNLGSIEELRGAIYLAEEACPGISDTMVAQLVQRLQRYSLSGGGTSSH
Sequence of Serine/threonine-protein kinase pim-2 (Q9P1W9 whole entry, looked up): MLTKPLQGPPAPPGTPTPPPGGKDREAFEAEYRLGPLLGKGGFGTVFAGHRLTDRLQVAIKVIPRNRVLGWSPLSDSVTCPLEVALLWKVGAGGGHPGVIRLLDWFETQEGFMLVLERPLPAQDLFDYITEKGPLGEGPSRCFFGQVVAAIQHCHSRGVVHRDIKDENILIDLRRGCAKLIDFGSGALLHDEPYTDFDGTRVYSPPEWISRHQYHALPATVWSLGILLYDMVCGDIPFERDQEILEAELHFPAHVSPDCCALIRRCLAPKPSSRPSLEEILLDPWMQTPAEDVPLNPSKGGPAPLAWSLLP

CCN(CC)CCCCNc1ncc2cc(-c3cc(OC)cc(OC)c3)c(NC(=O)NC(C)(C)C)nc2n1 showed a % of control [1] of 7% and a % of control [2] of 100%.
Compound COc1cc(N(C)c2ccnc3ccc(C(F)(F)F)cc23)cc(OC)c1OC has a % binding [3] of 98%.
Compound CCC(=O)N1CCN(c2ccc(-n3c(=O)ccc4cnc5ccc(-c6cnc7ccccc7c6)cc5c43)cc2C(F)(F)F)CC1 has a % of control [4] of 99%.
CN(C)CCOc1ccc(-c2nc(-c3ccncc3)c(-c3ccc4c(c3)CC/C4=N\O)[nH]2)cc1 was tested, and the % of control [5] was 100%.
Compound COc1cc(Nc2nc(C)cc(-c3cnn4nc(OC)ccc34)n2)cc(C(F)(F)F)c1 has a % of control [6] of 90%, a % of control [7] of 70% and a % of control [8] of 100%.
C=CC(=O)Nc1cc(-n2c(=O)ccc3cnc4ccc(-c5ccc(NS(C)(=O)=O)cc5)cc4c32)ccc1C gave a % of control ([9]; at 1 µM) of 92% and a % of control ([9]; at 10 µM) of 95%.
For N#Cc1cccc(-c2c[nH]c3ncnc(N4CCOCC4)c23)c1, the % of control [10] was 93%.

Source: ChEMBL document CHEMBL5465560, “Selectivity Literature for EUbOPEN Chemogenomic Library” (2024)
